# From patent US20240199546A1, “INHIBITORS OF SOLUTE CARRIER FAMILY 6A MEMBER 19 (SLC6A19) AND METHODS OF USE THEREOF” (Maze Therapeutics, Inc., priority 2022, published 2024)
# Biological target: T1, human SLC6A19 and TMEM27 (Homo sapiens, UniProt Q695T7)
# T1 construct: expressed in transfected cells
# T1 sequence (Q695T7 1-634): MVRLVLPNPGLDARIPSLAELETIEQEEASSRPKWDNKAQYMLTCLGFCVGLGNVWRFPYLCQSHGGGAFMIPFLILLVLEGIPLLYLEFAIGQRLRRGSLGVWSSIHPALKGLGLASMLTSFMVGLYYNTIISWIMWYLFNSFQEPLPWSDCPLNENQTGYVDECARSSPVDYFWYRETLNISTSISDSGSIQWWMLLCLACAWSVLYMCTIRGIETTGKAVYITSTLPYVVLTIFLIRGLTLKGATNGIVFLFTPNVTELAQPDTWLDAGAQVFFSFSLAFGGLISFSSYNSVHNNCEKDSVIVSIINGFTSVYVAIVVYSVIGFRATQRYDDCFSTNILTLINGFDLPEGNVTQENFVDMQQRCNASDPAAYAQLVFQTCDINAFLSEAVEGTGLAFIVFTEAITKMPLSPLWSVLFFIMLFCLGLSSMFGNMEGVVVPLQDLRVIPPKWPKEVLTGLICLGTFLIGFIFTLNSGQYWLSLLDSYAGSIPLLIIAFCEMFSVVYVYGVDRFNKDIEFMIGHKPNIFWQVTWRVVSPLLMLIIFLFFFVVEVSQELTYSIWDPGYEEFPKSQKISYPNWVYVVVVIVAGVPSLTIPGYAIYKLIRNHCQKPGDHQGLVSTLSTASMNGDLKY
# T1 sequence (Q9HBJ8 15-222 partner): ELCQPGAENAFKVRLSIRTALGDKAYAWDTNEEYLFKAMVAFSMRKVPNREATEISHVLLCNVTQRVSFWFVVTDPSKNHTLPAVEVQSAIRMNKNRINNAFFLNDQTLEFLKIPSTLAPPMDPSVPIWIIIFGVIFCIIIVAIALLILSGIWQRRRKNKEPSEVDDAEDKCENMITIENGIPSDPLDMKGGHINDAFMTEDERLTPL
# Test: Radiolabelled (3H) leucine uptake in CHO cells with doxycycline-inducible expression of human SLC6A19 and TMEM27 (Example B-1)
# Type: cell-based
# Settings: CHO cells with doxycycline-inducible expression of human SLC6A19 and TMEM27, read-out: SLC6A19_Radioligand Uptake Assay IC50
# Method: The flasks were then incubated (humidified, 37° C. with 5% CO2) for 2 minutes. After incubation, 10 mL of pre-warmed cell culture media was added to each flask. The cell suspension was collected and centrifuged for 5 minutes at 200×g. The supernatant was aspirated and the pellet was resuspended in 5 mL pre-warmed cell culture media. The resuspended cells were counted using the Countess Cell Counting Chamber (Invitrogen) and the cell concentration of the suspension was readjusted to 1 million live cells/mL using pre-warmed cell culture media. […] Assay plates were then incubated (humidified, 37° C. with 5% CO2) for 18 hours. After incubation, the media was aspirated and the wells were washed 4 times with pre-warmed HBSS (Sigma-Aldrich, H8264-1L) using an Apricot S-Pipette S2 (Apricot Designs), such that 5 uL/well HBSS was remaining at the end of each wash. […] At this step, the final in-well DMSO concentration in the assay plate is 0.5%. All compounds were plated in a duplicate 8-point dilution series that consisted of 3-fold dilutions. The plates were incubated with compound (humidified, 37° C. with 5% CO2) for 1 hour. […] The plates were then incubated (humidified, 37° C. with 5% CO2) on a plate shaker at 200 rpm for 2 hours. After incubation, the plates were removed from the shaker and kept at room temperature for 15 minutes. Liquid scintillation analysis was performed using the MicroBeta2 Microplate Counter (Perkin Elmer). Activity (%) was derived by normalizing the average of positive control compound treated wells to 0% and the average of DMSO (negative control) wells to 100%. Collaborative Drug Discovery software was used for graphing data.
row,IC50,Structure (SMILES)
1,1190 nM,"COc1ccc(COc2cc3[nH]c(CNC(=O)C4(C)CC4)cc3cc2Cl)nn1 [Compound 337, N-((5-chloro-6-((6-methoxypyridazin-3-yl)methoxy)-1H-indol-2-yl)methyl)-1-methylcyclopropane-1-carboxamide]"
2,1520 nM,"CC1(C(=O)NCc2cc3cc(OC(F)(F)F)c(CCc4cscn4)cc3[nH]2)CC1 [Compound 509, 1-methyl-N-((6-(2-(thiazol-4-yl)ethyl)-5-(trifluoromethoxy)-1H-indol-2-yl)methyl)cyclopropane-1-carboxamide]"
3,187 nM,"Cc1cc(COc2cc3[nH]c(CNC(=O)CC4CC4)cc3cc2Cl)on1 [Compound 449, N-((5-chloro-6-((3-methylisoxazol-5-yl)methoxy)-1H-indol-2-yl)methyl)-2-cyclopropylacetamide]"
4,720 nM,"O=C(NCc1cc2cc(Cl)c(OCc3cscn3)cc2[nH]1)C1CCOC1 (centres unmarked) [Compound 267, N-((5-chloro-6-(thiazol-4-ylmethoxy)-1H-indol-2-yl)methyl)tetrahydrofuran-3-carboxamide]"
5,402 nM,"O=C(NCc1cc2cc(Cl)c(OCc3ccon3)cc2[nH]1)N1CCCCC1 [Compound 85, N-((5-chloro-6-(isoxazol-3-ylmethoxy)-1H-indol-2-yl)methyl)piperidine-1-carboxamide]"
6,277 nM,"Cc1cc(COc2cc(F)c3cc(CNC(=O)C4(C)CC4)[nH]c3c2)no1 [Compound 340, N-((4-fluoro-6-((5-methylisoxazol-3-yl)methoxy)-1H-indol-2-yl)methyl)-1-methylcyclopropane-1-carboxamide]"
7,2350 nM,"CC1(C(=O)NCc2cc3cc(Cl)c(OCc4cscn4)cc3[nH]2)CCO1 (centres unmarked) [Compound 260, N-((5-chloro-6-(thiazol-4-ylmethoxy)-1H-indol-2-yl)methyl)-2-methyloxetane-2-carboxamide]"
8,143 nM,"CC1(C(=O)NCc2cc3cc(OC(F)F)c(OCc4ccon4)cc3[nH]2)CC1 [Compound 605, N-((5-(difluoromethoxy)-6-(isoxazol-3-ylmethoxy)-1H-indol-2-yl)methyl)-1-methylcyclopropane-1-carboxamide]"
9,267 nM,"Cc1cc(COc2cc3[nH]c(CNC(=O)N4CCCC4)cc3cc2F)no1 [Compound 117, N-((5-fluoro-6-((5-methylisoxazol-3-yl)methoxy)-1H-indol-2-yl)methyl)pyrrolidine-1-carboxamide]"
10,84.8 nM,"COC(=O)NCc1cc2cc(F)c(OCc3cscn3)cc2[nH]1 [Compound 622, methyl ((5-fluoro-6-(thiazol-4-ylmethoxy)-1H-indol-2-yl)methyl)carbamate]"
11,519 nM,"CC1(C(=O)NCc2cc3cc(Cl)c(OCc4cccnn4)cc3[nH]2)CC1 [Compound 334, N-((5-chloro-6-(pyridazin-3-ylmethoxy)-1H-indol-2-yl)methyl)-1-methylcyclopropane-1-carboxamide]"
12,> 5280 nM,"CC1(C(=O)NCc2cc3ccc(OCc4cc(C(F)(F)F)on4)cc3[nH]2)CC1 [Compound 354, 1-methyl-N-((6-((5-(trifluoromethyl)isoxazol-3-yl)methoxy)-1H-indol-2-yl)methyl)cyclopropane-1-carboxamide]"
13,172 nM,"CC1(C(=O)NCc2cc3cc(Cl)c(OCc4ccon4)c(F)c3[nH]2)CC1 [Compound 16, N-((5-chloro-7-fluoro-6-(isoxazol-3-ylmethoxy)-1H-indol-2-yl)methyl)-1-methylcyclopropane-1-carboxamide]"
14,472 nM,"Cc1cc(COc2cc3[nH]c(CNC(=O)C4CCO4)cc3cc2F)on1 (centres unmarked) [Compound 262, N-((5-fluoro-6-((3-methylisoxazol-5-yl)methoxy)-1H-indol-2-yl)methyl)oxetane-2-carboxamide]"
15,408 nM,"O=C(NCc1cc2cc(C(F)(F)F)c(OCc3ccon3)cc2[nH]1)N1CCCC1 [Compound 476, N-((6-(isoxazol-3-ylmethoxy)-5-(trifluoromethyl)-1H-indol-2-yl)methyl)pyrrolidine-1-carboxamide]"
16,95.6 nM,"Cc1cc(COc2cc3[nH]c(CNC(=O)C(C)(F)F)cc3cc2F)on1 [Compound 441, 2,2-difluoro-N-((5-fluoro-6-((3-methylisoxazol-5-yl)methoxy)-1H-indol-2-yl)methyl)propanamide]"
17,5290 nM,"Cc1cc(COc2cc3[nH]c(CNC(=O)C[C@H]4CCOC4)cc3cc2Cl)on1 [Compound 290, (R)-N-((5-chloro-6-((3-methylisoxazol-5-yl)methoxy)-1H-indol-2-yl)methyl)-2-(tetrahydrofuran-3-yl)acetamide]"
18,325 nM,"O=C(NCc1cc2cc(Cl)c(OCc3cscn3)cc2[nH]1)C1CCCC1 [Compound 489, N-((5-chloro-6-(thiazol-4-ylmethoxy)-1H-indol-2-yl)methyl)cyclopentanecarboxamide]"
19,182 nM,"CCOC(=O)NCc1cc2cc(Cl)c(OCc3cscn3)cc2[nH]1 [Compound 620, ethyl ((5-chloro-6-(thiazol-4-ylmethoxy)-1H-indol-2-yl)methyl)carbamate]"
20,182 nM,"CC(=O)NCc1cc2cc(Cl)c(OCc3ccon3)cc2[nH]1 [Compound 143, N-((5-chloro-6-(isoxazol-3-ylmethoxy)-1H-indol-2-yl)methyl)acetamide]"
21,367 nM,"Cc1cc(COc2cc3[nH]c(CNC(=O)C4(C#N)CCC4)cc3cc2Cl)on1 [Compound 487, N-((5-chloro-6-((3-methylisoxazol-5-yl)methoxy)-1H-indol-2-yl)methyl)-1-cyanocyclobutane-1-carboxamide]"
22,921 nM,"Cc1cc(COc2cc3[nH]c(CNC(=O)C45COC(C4)C5)cc3cc2Cl)on1 [Compound 298, N-((5-chloro-6-((3-methylisoxazol-5-yl)methoxy)-1H-indol-2-yl)methyl)-2-oxabicyclo[2.1.1]hexane-4-carboxamide]"
23,78.9 nM,"COCC(=O)NCc1cc2cc(Cl)c(OCc3cc(C)no3)cc2[nH]1 [Compound 272, N-((5-chloro-6-((3-methylisoxazol-5-yl)methoxy)-1H-indol-2-yl)methyl)-2-methoxyacetamide]"
24,355 nM,"O=C(NCc1cc2cc(OC(F)(F)F)c(OCc3ccon3)cc2[nH]1)N1CCCC1 [Compound 420, N-((6-(isoxazol-3-ylmethoxy)-5-(trifluoromethoxy)-1H-indol-2-yl)methyl)pyrrolidine-1-carboxamide]"
25,8470 nM,"CC1(C(=O)NCc2cc3cc(C4(F)CC4)c(OCc4cscn4)cc3[nH]2)CC1 [Compound 656, N-((5-(1-fluorocyclopropyl)-6-(thiazol-4-ylmethoxy)-1H-indol-2-yl)methyl)-1-methylcyclopropane-1-carboxamide]"
26,120 nM,"CC1(C(=O)NCc2cc3cc(F)c(CCc4cscn4)cc3[nH]2)CC1 [Compound 594, N-((5-fluoro-6-(2-(thiazol-4-yl)ethyl)-1H-indol-2-yl)methyl)-1-methylcyclopropane-1-carboxamide]"
27,221 nM,"Cc1cc(COc2cc3[nH]c(CNC(=O)C(C)C#N)cc3cc2Cl)on1 (single isomer, unassigned) [Compound 446, (R or S)-N-((5-chloro-6-((3-methylisoxazol-5-yl)methoxy)-1H-indol-2-yl)methyl)-2-cyanopropanamide]"
28,1610 nM,"Cc1cc(COc2cc3[nH]c(CNC(=O)C4(CO)CCCO4)cc3cc2Cl)on1 (centres unmarked) [Compound 295, N-((5-chloro-6-((3-methylisoxazol-5-yl)methoxy)-1H-indol-2-yl)methyl)-2-(hydroxymethyl)tetrahydrofuran-2-carboxamide]"
29,422 nM,"O=C(NCc1cc2cc(OC(F)(F)F)c(CCc3cocn3)cc2[nH]1)N1CCCC1 [Compound 468, N-((6-(2-(oxazol-4-yl)ethyl)-5-(trifluoromethoxy)-1H-indol-2-yl)methyl)pyrrolidine-1-carboxamide]"
